From PubChem BioAssay (NCI)
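Assay format: 96-well plates, 48-hour exposure. TGI denotes the concentration required for complete inhibition of growth.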

System: MDA-MB-231 breast
Experiment: NCI anticancer screen, dose series, 48 h

SMILES	TGI [µM]
[O-][n+]1nc(N2CCOCC2)nc2ccccc21	> 100
COc1ccc(NC(=S)Nc2cc(C)ccn2)cc1	> 100
Cc1sc2nc(N(C)C)oc(=O)c2c1C	> 100
Cc1cccc(N/C(=C(/C(Cl)=C(Cl)Cl)[N+](=O)[O-])n2nnc3ccccc32)c1	27.1
NC(CSS(=O)(=O)O)=NC1CC2CCC1C2 (configuration not stated)	> 100
CN1CCC23c4c5ccc(Oc6nnnn6-c6ccccc6)c4OC2c2[nH]c4ccccc4c2CC3(O)C1C5 (configuration not stated)	4.16
Cc1cn(C2OC(CO[Si](C)(C)C(C)(C)C)/C(=C\C#N)C2O[Si](C)(C)C(C)(C)C)c(=O)[nH]c1=O (configuration not stated)	> 100
C[C@]12CCC(O)CC1=CC[C@@H]1[C@@H]2CC[C@]2(C)C(O)[C@H](n3ccnc3)C[C@@H]12 (some centres not stated)	> 100
O=C(CC(O)(C(F)(F)F)C(F)(F)F)C(c1ccccc1)C(O)(C(F)(F)F)C(F)(F)F (configuration not stated)	> 100
CC(C)CCCC(C)[C@H]1CC[C@H]2n3c(nnc3-c3ccccc3)CCC[C@]12C (some centres not stated)	37.9
OC1=C2c3ccccc3NC2Oc2cc(F)ccc21 (configuration not stated)	33

System: MDA-MB-435
Experiment: NCI anticancer screen, dose series, 48 h

SMILES	TGI [µM]
CCOc1cccc(C=Nc2ccccc2SSc2ccccc2N=Cc2cccc(OCC)c2O)c1O	23.7
Cc1c2c(cc3c1C(=O)C(=O)C([C@@H](C)CO)=C3O)C(C)(C)CCC2	> 100
C[N+]12CCCCC1C(COc1cccc3cccnc13)CCC2 (configuration not stated)	> 100
Cc1ccc(S(=O)(=O)NC(=O)NCc2ccc(S(N)(=O)=O)cc2)cc1	> 100
NC(=O)NC1NC(=O)NC1=O (configuration not stated)	> 100
CC[C@@]1(O)C(=O)OCc2c1cc1n(c2=O)Cc2c-1nc1ccccc1c2/C=N\NC(=O)C[n+]1ccccc1	> 100
COc1ccccc1C[C@@H]1OC2(C=CC(=O)CC2SC(=O)c2ccccc2)O[C@H]1Cc1ccccc1OC (some centres not stated)	4.61
COc1ccc(CC2Cc3ccccc3CCN2)cc1OC (configuration not stated)	> 50
CN(C)CCn1c(=O)c2ccc(NCCNCCO)c3c(=O)c4ccccc4n(c1=O)c23	2.07
OCC1OC(NC(=S)NCCC(F)(F)C(F)(F)C(F)(F)C(F)(F)C(F)(F)C(F)(F)F)C(O)C(O)C1O (configuration not stated)	> 100
CSC1=N/C(=C\c2ccc(C)cc2)C(=O)N1	> 100
COc1cc2c(cc1OCCCNC(=O)c1cc3ccccc3[nH]1)N=C[C@@H]1CCCN1C2=O	0.716
COC(=O)/C(C)=N/NC(=S)SC	> 100
CC1=CC[C@H](C[C@H](C#CCCCC2OCCO2)O[Si](C(C)C)(C(C)C)C(C)C)C(=O)CC1	> 100
CC1=NN(c2cccc(S(=O)(=O)O)c2)C2(C1)C(Cl)C(=O)N2c1nc2ccccc2s1 (configuration not stated)	21.2
[O-][n+]1nc(N2CCOCC2)nc2ccccc21	> 100
COc1ccc(NC(=S)Nc2cc(C)ccn2)cc1	> 100
Cc1sc2nc(N(C)C)oc(=O)c2c1C	> 100
Cc1cccc(N/C(=C(/C(Cl)=C(Cl)Cl)[N+](=O)[O-])n2nnc3ccccc32)c1	38.8
NC(CSS(=O)(=O)O)=NC1CC2CCC1C2 (configuration not stated)	> 100
CN1CCC23c4c5ccc(Oc6nnnn6-c6ccccc6)c4OC2c2[nH]c4ccccc4c2CC3(O)C1C5 (configuration not stated)	8.41
Cc1cn(C2OC(CO[Si](C)(C)C(C)(C)C)/C(=C\C#N)C2O[Si](C)(C)C(C)(C)C)c(=O)[nH]c1=O (configuration not stated)	> 100
C[C@]12CCC(O)CC1=CC[C@@H]1[C@@H]2CC[C@]2(C)C(O)[C@H](n3ccnc3)C[C@@H]12 (some centres not stated)	> 100
O=C(CC(O)(C(F)(F)F)C(F)(F)F)C(c1ccccc1)C(O)(C(F)(F)F)C(F)(F)F (configuration not stated)	> 100
CC(C)CCCC(C)[C@H]1CC[C@H]2n3c(nnc3-c3ccccc3)CCC[C@]12C (some centres not stated)	25.7
OC1=C2c3ccccc3NC2Oc2cc(F)ccc21 (configuration not stated)	33.9

System: NCI-H23 lung
Experiment: NCI anticancer screen, dose series, 48 h

SMILES	TGI [µM]
CCOc1cccc(C=Nc2ccccc2SSc2ccccc2N=Cc2cccc(OCC)c2O)c1O	20.3
Cc1c2c(cc3c1C(=O)C(=O)C([C@@H](C)CO)=C3O)C(C)(C)CCC2	45.2
C[N+]12CCCCC1C(COc1cccc3cccnc13)CCC2 (configuration not stated)	> 100
Cc1ccc(S(=O)(=O)NC(=O)NCc2ccc(S(N)(=O)=O)cc2)cc1	> 100
NC(=O)NC1NC(=O)NC1=O (configuration not stated)	> 100
CC[C@@]1(O)C(=O)OCc2c1cc1n(c2=O)Cc2c-1nc1ccccc1c2/C=N\NC(=O)C[n+]1ccccc1	7.71
COc1ccccc1C[C@@H]1OC2(C=CC(=O)CC2SC(=O)c2ccccc2)O[C@H]1Cc1ccccc1OC (some centres not stated)	5.43
COc1ccc(CC2Cc3ccccc3CCN2)cc1OC (configuration not stated)	> 50
CN(C)CCn1c(=O)c2ccc(NCCNCCO)c3c(=O)c4ccccc4n(c1=O)c23	0.849
OCC1OC(NC(=S)NCCC(F)(F)C(F)(F)C(F)(F)C(F)(F)C(F)(F)C(F)(F)F)C(O)C(O)C1O (configuration not stated)	> 100
CSC1=N/C(=C\c2ccc(C)cc2)C(=O)N1	> 100
COC(=O)/C(C)=N/NC(=S)SC	> 100
CC1=CC[C@H](C[C@H](C#CCCCC2OCCO2)O[Si](C(C)C)(C(C)C)C(C)C)C(=O)CC1	> 100
CC1=NN(c2cccc(S(=O)(=O)O)c2)C2(C1)C(Cl)C(=O)N2c1nc2ccccc2s1 (configuration not stated)	13.5
[O-][n+]1nc(N2CCOCC2)nc2ccccc21	> 100
COc1ccc(NC(=S)Nc2cc(C)ccn2)cc1	> 100
Cc1sc2nc(N(C)C)oc(=O)c2c1C	> 100
Cc1cccc(N/C(=C(/C(Cl)=C(Cl)Cl)[N+](=O)[O-])n2nnc3ccccc32)c1	34.7
NC(CSS(=O)(=O)O)=NC1CC2CCC1C2 (configuration not stated)	> 100
CN1CCC23c4c5ccc(Oc6nnnn6-c6ccccc6)c4OC2c2[nH]c4ccccc4c2CC3(O)C1C5 (configuration not stated)	33.7
